Here are results for nine compounds from ChEMBL document CHEMBL5244281, “Tackling multidrug-resistant Staphylococcus aureus by natural products and their analogues acting as NorA efflux pump inhibitors” (Bioorg Med Chem, 2023).

Each structure is given as a SMILES string. ≈ marks a conversion by molar mass, not a printed value. Some results are limits rather than exact numbers.

Assay [1] addresses T1, Quinolone resistance protein NorA (Staphylococcus aureus) (UniProt P0A0J7).
T1 sequence (whole entry): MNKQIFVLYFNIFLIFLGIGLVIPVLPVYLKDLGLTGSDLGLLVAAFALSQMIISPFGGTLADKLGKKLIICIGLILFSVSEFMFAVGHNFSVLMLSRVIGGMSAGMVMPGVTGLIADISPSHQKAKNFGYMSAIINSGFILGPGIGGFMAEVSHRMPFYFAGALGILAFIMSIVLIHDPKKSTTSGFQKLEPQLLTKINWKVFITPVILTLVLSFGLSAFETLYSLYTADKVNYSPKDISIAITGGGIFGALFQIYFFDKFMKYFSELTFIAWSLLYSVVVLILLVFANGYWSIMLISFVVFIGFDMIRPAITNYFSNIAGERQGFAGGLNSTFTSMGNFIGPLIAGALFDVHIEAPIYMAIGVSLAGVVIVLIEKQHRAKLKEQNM
The experiment in a line: Potentiation of EtBr-induced inhibition of NorA efflux in Staphylococcus aureus 1199B overexpressing NorA assessed as reduction in EtBr MIC at 256 ug/ml incubated for 24 hrs by resazurin based assay (Rvb= 32 ug/ml). Conditions: dose 256.0 µg/ml.

Assay [2] has as its system Staphylococcus aureus. The experiment in a line: Antibacterial activity against norfloxacin resistant Staphylococcus aureus 1199B overexpressing NorA assessed as bacterial growth inhibition incubated for 24 hrs by resazurin based microdilution assay. Type of assay: functional.
The subject of assay [3] is Staphylococcus aureus. The experiment in a line: Antibacterial activity against Staphylococcus aureus SA10 assessed as bacterial growth inhibition incubated for 24 hrs by resazurin based microdilution assay. It counts as functional.
The subject of assay [4] is Escherichia coli. The experiment in a line: Antibacterial activity against Escherichia coli ATCC […] assessed as bacterial growth inhibition incubated for 24 hrs by resazurin based microdilution assay. It counts as functional.
In assay [5] the test system is Staphylococcus aureus. Briefly: Antibacterial activity against Staphylococcus aureus 1199 assessed as bacterial growth inhibition incubated for 24 hrs by resazurin based microdilution assay. Type of assay: functional.
In assay [6] the test system is Staphylococcus aureus. Briefly: Antibacterial activity against Staphylococcus aureus ATCC 25923 assessed as bacterial growth inhibition incubated for 24 hrs by resazurin based microdilution assay. Type of assay: functional.
Assay [7] relates to Candida albicans. The experiment in a line: Antifungal activity against Candida albicans NEWP031 assessed as bacterial growth inhibition incubated for 24 hrs by resazurin based microdilution assay. It counts as functional.
For assay [8], the target named is T1, Quinolone resistance protein NorA (Staphylococcus aureus). The following applies: 1199B, dose 128.0 µg/ml, time 24.0 hrs.
The subject of assay [9] is Escherichia coli. The experiment in a line: Potentiation of gentamicin-induced antibacterial activity against Escherichia coli 06 assessed as gentamicin MIC at 1/8 times of MIC (Rvb= 322 ug/ml). Type of assay: functional.
Assay [10] deals with T1, Quinolone resistance protein NorA (Staphylococcus aureus). Briefly: Potentiation of EtBr-induced inhibition of NorA efflux pump in Staphylococcus aureus 1199B overexpressing NorA efflux pump assessed as reduction in EtBr MIC at 1/8 times of MIC by resazurin based assay (Rvb= 512 ug/ml).
The subject of assay [11] is Staphylococcus aureus. The experiment in a line: Antibacterial activity against norfloxacin resistant Staphylococcus aureus 1199B overexpressing NorA assessed as bacterial growth inhibition. It counts as functional.
For assay [12], the system named is Staphylococcus aureus. The experiment in a line: Antibacterial activity against norfloxacin resistant Staphylococcus aureus 1199 assessed as bacterial growth inhibition. It counts as functional.
Another assay deals with Enterococcus faecalis. Briefly: Antimicrobial activity against Enterococcus faecalis ATCC 29212 assessed as bacterial growth inhibition incubated for 18 hrs by broth microdilution assay. Type of assay: functional.
The test system of assay [13] is Escherichia coli. The experiment in a line: Antimicrobial activity against Escherichia coli ATCC 25922 assessed as bacterial growth inhibition incubated for 18 hrs by broth microdilution assay. It counts as functional.
Assay [14] concerns Staphylococcus aureus. Briefly: Antimicrobial activity against Staphylococcus aureus ATCC 29213 assessed as bacterial growth inhibition incubated for 18 hrs by broth microdilution assay. It counts as functional.
A further assay concerns Klebsiella pneumoniae. Briefly: Antimicrobial activity against Klebsiella pneumoniae 1213-2 assessed as bacterial growth inhibition incubated for 18 hrs by broth microdilution assay. Type of assay: functional.
Assay [15] relates to Staphylococcus aureus. The experiment in a line: Antimicrobial activity against Staphylococcus aureus BAA-44 assessed as bacterial growth inhibition incubated for 18 hrs by broth microdilution assay. It counts as functional.
Assay [16] relates to Staphylococcus aureus. The experiment in a line: Antimicrobial activity against Staphylococcus aureus ATCC 43300 assessed as bacterial growth inhibition incubated for 18 hrs by broth microdilution assay. It counts as functional.
The next assay relates to Enterococcus faecium. The experiment in a line: Antimicrobial activity against Enterococcus faecium ATCC 700221 assessed as bacterial growth inhibition incubated for 18 hrs by broth microdilution assay. It counts as functional.
Assay [17] has as its system Staphylococcus aureus. The experiment in a line: Antibacterial activity against wild type Staphylococcus aureus ATCC 25923 assessed as bacterial growth inhibition incubated for 24 hrs by microdilution method. It counts as functional.
In assay [18] the test system is Candida albicans. The experiment in a line: Antimicrobial activity against Candida albicans ATCC 10231 assessed as […] growth inhibition incubated for 24 hrs by microdilution method. Type of assay: functional.
The target of assay [19] is T1, Quinolone resistance protein NorA (Staphylococcus aureus). The following applies: 1199B.
The subject of assay [20] is Escherichia coli. Briefly: Antibacterial activity against Escherichia coli ATCC 25922 assessed as bacterial growth inhibition incubated for 24 hrs by microdilution method. It counts as functional.
For assay [21], the system named is Staphylococcus aureus. The experiment in a line: Antibacterial activity against Staphylococcus aureus 1199B overexpressing NorA efflux protein assessed as bacterial growth inhibition incubated for 24 hrs by microdilution method. Type of assay: functional.
In assay [22] the test system is Staphylococcus aureus. The experiment in a line: Antibacterial activity against Staphylococcus aureus RN4220 overexpressing […] efflux protein assessed as bacterial growth inhibition incubated for 24 hrs by resazurin based microdilution assay. Type of assay: functional.
In assay [23] the test system is Staphylococcus aureus. Briefly: Antibacterial activity against Staphylococcus aureus K2068 overexpressing mepA gene assessed as bacterial growth inhibition incubated for 24 hrs by resazurin based microdilution assay. Type of assay: functional.
The subject of assay [24] is Staphylococcus aureus. The experiment in a line: Antibacterial activity against wild type Staphylococcus aureus ATCC 25923 assessed as bacterial growth inhibition incubated for 24 hrs by resazurin based microdilution assay. It counts as functional.
In assay [25] the test system is Staphylococcus aureus. The experiment in a line: Antibacterial activity against Staphylococcus aureus K4414 overexpressing qacA/B gene assessed as bacterial growth inhibition incubated for 24 hrs by resazurin based microdilution assay. Type of assay: functional.
Assay [26] relates to Staphylococcus aureus. The experiment in a line: Antibacterial activity against Staphylococcus aureus K4100 overexpressing qacC gene assessed as bacterial growth inhibition incubated for 24 hrs by resazurin based microdilution assay. It counts as functional.
Assay [27] has as its system Staphylococcus aureus. Briefly: Antibacterial activity against Staphylococcus aureus IS-58 overexpressing TetK efflux protein assessed as bacterial growth inhibition incubated for 24 hrs by resazurin based microdilution assay. It counts as functional.
In assay [28] the test system is Staphylococcus aureus. The experiment in a line: Antibacterial activity against Staphylococcus aureus 1199B overexpressing NorA efflux protein assessed as bacterial growth inhibition incubated for 24 hrs by resazurin based microdilution assay. It counts as functional.
The target of assay [29] is T1, Quinolone resistance protein NorA (Staphylococcus aureus). Briefly: Potentiation of ciprofloxacin-mediated inhibition of NorA efflux pump in Staphylococcus aureus 1199B overexpressing NorA efflux pump assessed as reduction in ciprofloxacin MIC (Rvb= […] ug/ml).

For the compound `CC(C)CCCC(C)CCO` (stereo not drawn), the MIC in assay [1] is 16 µg/mL; with Staphylococcus aureus [2], not below 1020 µg/mL; in the assay with Staphylococcus aureus [3] it was not below 1020 µg/mL; in the assay on Escherichia coli [4], 2050 µg/mL (≈ 12900 µM); in the assay with Staphylococcus aureus [5] it was not below 1020 µg/mL; in the assay on Staphylococcus aureus [6], not below 1020 µg/mL. Further, the values for the MIC (in the assay with Candida albicans [7]; in [8]) were 2050 µg/mL (≈ 12900 µM) and 32 µg/mL (≈ 202 µM), respectively.
With `C[C@H]1[C@H](C)CC[C@]2(C)CC[C@]3(C)C(=CC[C@@H]4[C@@]5(C)CC[C@H](O)C(C)(C)[C@@H]5CC[C@]43C)[C@H]12`, the MIC in the assay with Escherichia coli [9] amounted to 203 µg/mL; in assay [10], 406 µg/mL.
Take `CC1=CCC(C(C)C)CC1` (stereo not drawn): the MIC with Staphylococcus aureus [11] and with Staphylococcus aureus [12] was more than 1020 µg/mL in each case.
In the case of `CN(CC[C@H](N)CC(=O)N[C@H]1C=C[C@H](n2ccc(N)nc2=O)O[C@@H]1C(N)=O)C(=N)N`, the MIC was found to be 12.5 µg/mL (≈ 29.7 µM) in the assay on Enterococcus faecalis; 12.5 µg/mL (≈ 29.7 µM) in the assay on Escherichia coli [13]; 6.25 µg/mL (≈ 14.8 µM) in the assay with Staphylococcus aureus [14]; 50 µg/mL (≈ 119 µM) in the assay with Klebsiella pneumoniae; 12.5 µg/mL (≈ 29.7 µM) with Staphylococcus aureus [15]; 12.5 µg/mL (≈ 29.7 µM) in the assay on Staphylococcus aureus [16]. Besides, the MIC with Enterococcus faecium was found to be 50 µg/mL (≈ 119 µM).
In the case of `COc1ccc(/C=C/[C@@H]2c3c(cc(O)cc3OC)C[C@H]3c4ccc(O)cc4O[C@H](c4ccccc4)[C@@H]23)cc1`, the MIC with Staphylococcus aureus [17] was more than 1020 µg/mL; in the assay on Candida albicans [18] it was 161 µg/mL (≈ 318 µM); in assay [19], 16 µg/mL (≈ 31.6 µM); in the assay on Escherichia coli [20], more than 1020 µg/mL; with Staphylococcus aureus [21], more than 1020 µg/mL.
In the case of `COc1ccc(/C=C/C(=O)c2cc(O)c(O)c(OC)c2)cc1OC`, the MIC with Staphylococcus aureus [22] came out at 100 µg/mL (≈ 303 µM); in the assay with Staphylococcus aureus [23], 100 µg/mL (≈ 303 µM); with Staphylococcus aureus [24], 100 µg/mL (≈ 303 µM); in the assay with Staphylococcus aureus [25], 100 µg/mL (≈ 303 µM); in assay [19], 16 µg/mL (≈ 48.4 µM); with Staphylococcus aureus [26] it was 100 µg/mL (≈ 303 µM). Besides, the MIC in the assay with Staphylococcus aureus [27] and with Staphylococcus aureus [28] was 100 µg/mL (≈ 303 µM) in each case.
For the compound `COc1cc(O)cc2c1[C@@H](/C=C/c1ccc(O)cc1)[C@@H]1[C@@H](c3ccccc3)Oc3cc(O)ccc3[C@@H]1O2`, the MIC in the assay with Staphylococcus aureus [17], in the assay with Candida albicans [18], in the assay with Escherichia coli [20] and in the assay on Staphylococcus aureus [21] was more than 1020 µg/mL in each case.
For the compound `CC(/C=C/C(=O)N1CCCC1)=C\c1ccc2c(c1)CCC(C)O2` (stereo not drawn), in assay [29], the MIC was 3.12 µg/mL.
Consider `CCOC(=O)/C=C/C(C)=C/c1ccc2c(c1)CCC(C)(C)O2`, for which the MIC in assay [29] stood at 3.12 µg/mL.
